Here are results for 18 molecules from ChEMBL document CHEMBL4219267, “Design and synthesis of plant cyclopeptide Astin C analogues and investigation of their immunosuppressive activity” (Bioorg Med Chem Lett, 2018).

Numbered stars: 1 amine (or outer) side, 2 acyl side, 3 side chain; on linkers, the order of the positions; unused ones are H or OH. Square brackets hold non-standard residues; d marks the D form. Peptide text beside a SMILES is read from it. β3hPhg = O=C(C[C@@H](N[*:1])c1ccccc1)[*:2]; ΔPro = O=C(O)[C@@H]1C=CCN1; Abu = CC[C@H](N)C(=O)O

In general, IC50 refers to the concentration needed to halve the response being measured. A lower IC50 goes with greater potency.

The nature of the test: Immunosuppressive activity in C57BL/6 mouse lymph node cells after 24 hrs by MTT assay. The class given is functional. The note with it: C57BL/6, 24 h. A general note: Tetrazolium assays rely on reduction of a dye to a coloured formazan, in cell work by metabolically active cells.
In the case of `CC[C@@H]1NC(=O)[C@@H]2C=CCN2C(=O)[C@H](CC)NC(=O)C[C@H](c2ccccc2)NC(=O)[C@H](CO)NC1=O` (cyclo([Abu]S[β3hPhg][Abu][ΔPro])), the IC50 is above 100 µM.
The value for `CC[C@@H]1NC(=O)C[C@H](c2ccccc2)NC(=O)[C@H](CO)NC(=O)[C@H](CC)NC(=O)[C@H]([C@H](C)O)NC1=O` was above 100 µM.
As for `CC[C@@H]1NC(=O)C[C@H](c2ccccc2)NC(=O)[C@H](CO)NC(=O)[C@H](CC)NC(=O)[C@H](CC(C)C)NC1=O` (cyclo([Abu]L[Abu]S[β3hPhg])), the figure is above 100 µM; as for `CC[C@@H]1NC(=O)[C@@H]2[C@@H](O)[C@@H](O)CN2C(=O)[C@H](CC)NC(=O)C[C@H](c2ccccc2)NC(=O)[C@H](CO)NC1=O`, above 100 µM; as for `CC[C@@H]1NC(=O)C[C@H](c2ccccc2)NC(=O)[C@H](CO)NC(=O)[C@H](CC)NC(=O)[C@@H]([C@@H](C)O)NC1=O`, 38.4 µM.
The value for `CC[C@@H]1NC(=O)C[C@H](c2ccccc2)NC(=O)[C@H](CO)NC(=O)[C@H](CC)NC(=O)[C@H](Cc2c[nH]cn2)NC1=O` (cyclo([Abu]H[Abu]S[β3hPhg])) was above 100 µM; that for `CC[C@@H]1NC(=O)C[C@H](c2ccccc2)NC(=O)[C@H](CO)NC(=O)[C@H](CC)NC(=O)[C@H](C(C)C)NC1=O` (cyclo([Abu]S[β3hPhg][Abu]V)) was above 100 µM.
In the case of `CC[C@@H]1NC(=O)C[C@H](c2ccccc2)NC(=O)[C@H](CC)NC(=O)C[C@H](c2ccccc2)NC(=O)[C@H](CO)NC1=O`, the midpoint of inhibition, the IC50, lay at 61.8 µM.
As for `CC[C@@H]1NC(=O)C[C@H](c2ccccc2)NC(=O)[C@H](CO)NC(=O)[C@H](CC)NC(=O)[C@H](CCCNC(=N)N)NC1=O` (cyclo([Abu]R[Abu]S[β3hPhg])), the figure is above 100 µM; as for `CC[C@@H]1NC(=O)C[C@H](c2ccccc2)NC(=O)[C@H](CO)NC(=O)[C@H](CC)NC(=O)[C@H]([C@H](C)OC(=O)c2ccc[nH]2)NC1=O`, above 100 µM; as for `CC[C@@H]1NC(=O)C[C@H](c2ccccc2)NC(=O)[C@H](CO)NC(=O)[C@H](CC)NC(=O)[C@H](CCCCN)NC1=O` (cyclo([Abu]K[Abu]S[β3hPhg])), above 100 µM.
As for `CC[C@@H]1NC(=O)C[C@H](c2ccccc2)NC(=O)[C@H](CO)NC(=O)[C@H](CC)NC1=O`, the figure is above 100 µM; as for `CC[C@@H]1NC(=O)[C@@H]2[C@H](Cl)[C@H](Cl)CN2C(=O)[C@H](CC)NC(=O)C[C@H](c2ccccc2)NC(=O)[C@H](CO)NC1=O`, 12.6 µM; as for `CCCCCCC[C@@H]1NC(=O)[C@H](CC)NC(=O)C[C@H](c2ccccc2)NC(=O)[C@H](CO)NC(=O)[C@H](CC)NC1=O`, 65.2 µM.
The value for `CC[C@@H]1NC(=O)C[C@H](c2ccccc2)NC(=O)[C@H](CO)NC(=O)[C@H](CC)NC(=O)[C@H](C)NC1=O` (cyclo(A[Abu]S[β3hPhg][Abu])) was above 100 µM; that for `CC[C@@H]1NC(=O)C[C@H](c2ccccc2)NC(=O)[C@H](CO)NC(=O)[C@H](CC)NC(=O)[C@@H]([C@H](C)O)NC1=O` was 51.8 µM; that for `CC[C@@H]1NC(=O)C[C@H](c2ccccc2)NC(=O)[C@H](CO)NC(=O)[C@H](CC)NC(=O)[C@H](Cc2ccc(O)cc2)NC1=O` (cyclo([Abu]S[β3hPhg][Abu]Y)) was above 100 µM.
As to `CC[C@@H]1NC(=O)C[C@H](c2ccccc2)NC(=O)[C@H](CO)NC(=O)[C@H](CC)NC(=O)[C@H]([C@@H](C)O)NC1=O`, the IC50 was above 100 µM.
